Target: IRAK4 (Homo sapiens (Human), UniProt Q9NWZ3)
Assay: IRAK4 Inhibition Assay
Type: biochemical
Settings: ATP 500 μM; IRAK4 0.6 nM; 60 min room temperature; Caliper LABCHIP 3000
Protocol: The assays were performed in U-bottom 384-well plates. The final assay volume was 30 μL prepared from 15 μL additions of enzyme and substrates (fluoresceinated peptide and ATP) and test compounds in assay buffer (20 mM HEPES pH 7.2, 10 mM MgCl2, 0.015% Brij 35 and 4 mM DTT). The reaction was initiated by the combination of IRAK4 with substrates and test compounds. The reaction mixture was incubated at room temperature for 60 min. and terminated by adding 45 μL of 35 mM EDTA to each sample. The reaction mixture was analyzed on the Caliper LABCHIP® 3000 (Caliper, Hopkinton, MA) by electrophoretic separation of the fluorescent substrate and phosphorylated product. Inhibition data were calculated by comparison to no enzyme control reactions for 100% inhibition and vehicle-only reactions for 0% inhibition. The final concentrations of reagents in the assays are ATP, 500 μM; FL-IPTSPITTTYFFFKKK peptide 1.5 μM; IRAK4, 0.6 nM; and DMSO, 1.6%.

IRAK4, sequence (Q9NWZ3 whole entry, species assumed): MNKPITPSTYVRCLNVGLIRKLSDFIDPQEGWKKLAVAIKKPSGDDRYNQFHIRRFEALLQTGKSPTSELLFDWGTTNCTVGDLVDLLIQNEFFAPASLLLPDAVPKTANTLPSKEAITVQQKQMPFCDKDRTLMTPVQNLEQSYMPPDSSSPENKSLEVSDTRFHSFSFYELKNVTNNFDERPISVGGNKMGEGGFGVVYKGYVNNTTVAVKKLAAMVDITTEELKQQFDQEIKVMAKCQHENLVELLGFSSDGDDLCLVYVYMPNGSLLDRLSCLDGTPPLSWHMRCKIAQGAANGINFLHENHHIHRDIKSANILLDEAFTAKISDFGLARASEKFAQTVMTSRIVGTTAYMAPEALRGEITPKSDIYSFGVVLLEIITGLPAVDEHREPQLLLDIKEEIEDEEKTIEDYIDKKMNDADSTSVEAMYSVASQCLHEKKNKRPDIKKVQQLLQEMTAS

SMILES | IC50 [nM]
CC(C)Nc1c(C(=O)NC[C@@H](F)C(C)(C)O)cnc2ccc(-c3ccncc3)cc12 [Example 2, (R)—N-(2-fluoro-3-hydroxy-3-methylbutyl)-4-(isopropylamino)-6-(pyridin-4-yl)quinoline-3-carboxamide] | 25.9
CC(C)Nc1c(C(=O)NC[C@@H](F)C(C)(C)O)cnc2ccc(-c3cccnc3)cc12 [Example 3, (R)—N-(2-fluoro-3-hydroxy-3-methylbutyl)-4-(isopropylamino)-6-(pyridin-3-yl) quinoline-3-carboxamide] | 46.2
CC(C)Nc1c(C(=O)NC[C@@H](F)C(C)(C)O)cnc2ccc(-c3cncc(C#N)c3)cc12 [Example 4, (R)-6-(5-cyanopyridin-3-yl)-N-(2-fluoro-3-hydroxy-3-methylbutyl)-4-(isopropylamino)quinoline-3-carboxamide] | 296
CC(C)Nc1c(C(=O)NC[C@@H](F)C(C)(C)O)cnc2ccc(-c3cncnc3)cc12 [Example 5, (R)—N-(2-fluoro-3-hydroxy-3-methylbutyl)-4-(isopropylamino)-6-(pyrimidin-5-yl)quinoline-3-carboxamide] | 31.7
CC(C)Nc1c(C(=O)NC[C@@H](F)C(C)(C)O)cnc2ccc(-c3cccc(C#N)c3)cc12 [Example 6, (R)-6-(3-cyanophenyl)-N-(2-fluoro-3-hydroxy-3-methylbutyl)-4-(isopropylamino) quinoline-3-carboxamide] | 145
CC(C)Nc1c(C(=O)NC2CCCOC2)cnc2ccc(-c3cn[nH]c3)cc12 (stereo not shown) [Example 8, 4-(isopropylamino)-6-(1H-pyrazol-4-yl)-N-(tetrahydro-2H-pyran-3-yl)quinoline-3-carboxamide] | 24.1
CC(C)Nc1c(C(=O)NC2CCOCC2)cnc2ccc(-c3cn[nH]c3)cc12 [Example 9, 4-(isopropylamino)-6-(1H-pyrazol-4-yl)-N-(tetrahydro-2H-pyran-4-yl)quinoline-3-carboxamide] | 23.3
CC(C)Nc1c(C(=O)NC(CCO)C2CC2)cnc2ccc(-c3cn[nH]c3)cc12 (stereo not shown) [Example 12, N-(1-cyclopropyl-3-hydroxypropyl)-4-(isopropylamino)-6-(1H-pyrazol-4-yl)quinoline-3-carboxamide] | 295
CC(C)Nc1c(C(=O)N[C@H](C)CCO)cnc2ccc(-c3cn[nH]c3)cc12 [Example 13, (R)—N-(4-hydroxybutan-2-yl)-4-(isopropylamino)-6-(1H-pyrazol-4-yl)quinoline-3-carboxamide] | 88.3
Cc1cc(CNC(=O)c2cnc3ccc(-c4cn[nH]c4)cc3c2NC(C)C)on1 [Example 16, 4-(isopropylamino)-N-((3-methylisoxazol-5-yl)methyl)-6-(1H-pyrazol-4-yl)quinoline-3-carboxamide] | 40.2
COCCNC(=O)c1cnc2ccc(-c3cn[nH]c3)cc2c1NC(C)C [Example 18, 4-(isopropylamino)-N-(2-methoxyethyl)-6-(1H-pyrazol-4-yl)quinoline-3-carboxamide] | 28
CC(C)Nc1c(C(=O)NCC(C)(C)CO)cnc2ccc(-c3cn[nH]c3)cc12 [Example 19, N-(3-hydroxy-2,2-dimethylpropyl)-4-(isopropylamino)-6-(1H-pyrazol-4-yl)quinoline-3-carboxamide] | 94.8
CC(C)Nc1c(C(=O)NCC2(CO)COC2)cnc2ccc(-c3cn[nH]c3)cc12 [Example 20, N-((3-(hydroxymethyl)oxetan-3-yl)methyl)-4-(isopropylamino)-6-(1H-pyrazol-4-yl)quinoline-3-carboxamide] | 48.9
CC(C)Nc1c(C(=O)NCC2(CO)CC2)cnc2ccc(-c3cn[nH]c3)cc12 [Example 21, N-((1-(hydroxymethyl)cyclopropyl)methyl)-4-(isopropylamino)-6-(1H-pyrazol-4-yl)quinoline-3-carboxamide] | 114
CCNc1c(C(=O)NC[C@@H](F)C(C)(C)O)cnc2ccc(-c3cncs3)cc12 [Example 28, (R)-4-(ethylamino)-N-(2-fluoro-3-hydroxy-3-methylbutyl)-6-(thiazol-5-yl)quinoline-3-carboxamide] | 81.2
CC(C)Nc1c(C(N)=O)cnc2ccc(-c3cn[nH]c3)cc12 [Example 29, 4-(isopropylamino)-6-(1H-pyrazol-4-yl)quinoline-3-carboxamide] | 21.7
CC(O)CNc1c(C(=O)NC[C@@H](F)C(C)(C)O)cnc2ccc(-c3cn[nH]c3)cc12 (stereo partly drawn) [Example 30, N—((R)-2-fluoro-3-hydroxy-3-methylbutyl)-4-((2-hydroxypropyl)amino)-6-(1H-pyrazol-4-yl)quinoline-3-carboxamide] | 24.2

SMILES | IC50 [nM]
CC(C)(O)[C@H](F)CNC(=O)c1cnc2ccc(-c3cncs3)cc2c1Nc1cnn(CC(F)F)c1 [Example 31, (R)-4-((1-(2,2-difluoroethyl)-1H-pyrazol-4-yl)amino)-N-(2-fluoro-3-hydroxy-3-methylbutyl)-6-(thiazol-5-yl)quinoline-3-carboxamide] | 430
CC(O)CNc1c(C(=O)NC[C@@H](F)C(C)(C)O)cnc2ccc(-c3cncs3)cc12 (stereo partly drawn) [Example 32, N—((R)-2-fluoro-3-hydroxy-3-methylbutyl)-4-((2-hydroxypropyl)amino)-6-(thiazol-5-yl)quinoline-3-carboxamide] | 116
CC(C)(O)[C@H](F)CNC(=O)c1cnc2ccc(-c3cn[nH]c3)cc2c1Nc1cnn(CC(F)F)c1 [Example 33, (R)-4-((1-(2,2-difluoroethyl)-1H-pyrazol-4-yl)amino)-N-(2-fluoro-3-hydroxy-3-methylbutyl)-6-(1H-pyrazol-4-yl)quinoline-3-carboxamide] | 157
CC(C)(O)[C@H](F)CNC(=O)c1cnc2ccc(-c3cncs3)cc2c1NC1COC1 [Example 35, (R)—N-(2-fluoro-3-hydroxy-3-methylbutyl)-4-(oxetan-3-ylamino)-6-(thiazol-5-yl) quinoline-3-carboxamide] | 78
CCNc1c(C(=O)NCCC(C)(C)O)cnc2ccc(-c3cncs3)cc12 [Example 37, 4-(ethylamino)-N-(3-hydroxy-3-methylbutyl)-6-(thiazol-5-yl)quinoline-3-carboxamide] | 110
CCNc1c(C(=O)NCCC(C)(C)O)cnc2ccc(-c3cn[nH]c3)cc12 [Example 38, 4-(ethylamino)-N-(3-hydroxy-3-methylbutyl)-6-(1H-pyrazol-4-yl)quinoline-3-carboxamide] | 49.2
CC(C)Nc1c(C(=O)N[C@H]2C[C@@H](O)C2)cnc2ccc(-c3cn[nH]c3)cc12 [Example 39, N-((1s,3s)-3-hydroxycyclobutyl)-4-(isopropylamino)-6-(1H-pyrazol-4-yl)quinoline-3-carboxamide] | 38.6
CC(C)(O)CCNC(=O)c1cnc2ccc(-c3cn[nH]c3)cc2c1NC1COC1 [Example 40, N-(3-hydroxy-3-methylbutyl)-4-(oxetan-3-ylamino)-6-(1H-pyrazol-4-yl)quinoline-3-carboxamide] | 33.5
CC(C)(O)CCNC(=O)c1cnc2ccc(-c3cncs3)cc2c1NC1COC1 [Example 41, N-(3-hydroxy-3-methylbutyl)-4-(oxetan-3-ylamino)-6-(thiazol-5-yl)quinoline-3-carboxamide] | 210
CNC(=O)CCNC(=O)c1cnc2ccc(-c3cn[nH]c3)cc2c1NC(C)C [Example 48, 4-(isopropylamino)-N-(3-(methylamino)-3-oxopropyl)-6-(1H-pyrazol-4-yl)quinoline-3-carboxamide] | 30.7
CC(C)Nc1c(C(=O)NCCC(=O)N(C)C)cnc2ccc(-c3cn[nH]c3)cc12 [Example 49, N-(3-(dimethylamino)-3-oxopropyl)-4-(isopropylamino)-6-(1H-pyrazol-4-yl)quinoline-3-carboxamide] | 29.8
CC(C)Nc1c(C(=O)NCCC(=O)N2CCCC2)cnc2ccc(-c3cn[nH]c3)cc12 [Example 50, 4-(isopropylamino)-N-(3-oxo-3-(pyrrolidin-1-yl)propyl)-6-(1H-pyrazol-4-yl)quinoline-3-carboxamide] | 32.7
CC(C)(O)CCNC(=O)c1cnc2ccc(-c3cn[nH]c3)cc2c1NC1CC(F)(F)C1 [Example 52, 4-((3,3-difluorocyclobutyl)amino)-N-(3-hydroxy-3-methylbutyl)-6-(1H-pyrazol-4-yl)quinoline-3-carboxamide] | 23.9
CC(O)CCNC(=O)c1cnc2ccc(-c3cn[nH]c3)cc2c1NC1CC(F)(F)C1 (stereo not shown) [Example 53, 4-((3,3-difluorocyclobutyl)amino)-N-(3-hydroxybutyl)-6-(1H-pyrazol-4-yl)quinoline-3-carboxamide] | 32.6
O=C(NCCC(F)(F)F)c1cnc2ccc(-c3cn[nH]c3)cc2c1NC1CC(F)(F)C1 [Example 55, 4-((3,3-difluorocyclobutyl)amino)-6-(1H-pyrazol-4-yl)-N-(3,3,3-trifluoropropyl)quinoline-3-carboxamide] | 53.1
O=C(NCCC1CC1)c1cnc2ccc(-c3cn[nH]c3)cc2c1NC1CC(F)(F)C1 [Example 56, N-(2-cyclopropylethyl)-4-((3,3-difluorocyclobutyl)amino)-6-(1H-pyrazol-4-yl)quinoline-3-carboxamide] | 19.7
CC(=O)NC1CC(NC(=O)c2cnc3ccc(-c4cn[nH]c4)cc3c2NC2CC(F)(F)C2)C1 (stereo not shown) [Example 57, N-((1r,3r)-3-acetamidocyclobutyl)-4-((3,3-difluorocyclobutyl)amino)-6-(1H-pyrazol-4-yl)quinoline-3-carboxamide] | 22.6

— patent US12492186B2, “Bicyclic heterocyclic compounds useful as IRAK4 inhibitors” (BRISTOL-MYERS SQUIBB COMPANY, priority 2019, dated 2025)
